# Data: US5932709A (University of Michigan, priority 1997, dated 1999)
# Legend:
# [1] = Water solubility in phosphate buffered saline (spectrophotometric assay); format: physicochemical; conditions: for solubility at 24 h: aqueous buffer, water solubility, PBS pH 7.5, room temperature; for water solubility improvement: compared to camptothecin
# Procedure: Approximately 5 mg of test compound was suspended in 1 mL of PBS in a 1.5 mL cryovial. The suspensions were mixed continuously on a Thermolyne vari-mix at room temperature for 24 hr. The suspensions were then centrifuged at 14000×g for 2 minutes to separate the undissolved materials. The supernatant fluids were diluted appropriately with PBS and the ultraviolet spectrums were recorded on a Beckman 640 DU spectrophotometer. For comparison, a standard stock (2 mg/mL in DMSO) solution was prepared for each analog. The ultraviolet spectrum of a 20 of 40 μg/mL standard working solution was measured. The water solubility of each analog was calculated based on the following formula:
# Cunknown =Cstandard ×(Aunknown
# where Cunknown is the concentration of the unknown solution to be determined; Cstandard is the concentration of the standard working solution (either 20 or 40 μg/mL); Astandard is the absorbance at 350 nm of the standard working solution; DDilution is the appropriate dilution factor used so that the absorbance of the unknown working solution is within the dynamic range of the UV spectrophotometer (less than 2 absorbance units).
# [2] = test system: MX-1 human breast tumor xenograft; test: in vivo
# Description: For all the models, the vehicle used to deliver the analog of interest was isotonic saline.
# For the MX-1 human breast tumor xenograft models, the following procedure was used. Nude mice are implanted s.c. by trocar with fragments of MX-1 mammary carcinomas harvested from s.c. growing MX-1 tumors in nude mice hosts. When tumors are approximately 5 mm×5 mm in size (usually about ten days after inoculation), the animals are pair-matched into treatment and control groups. Each group contains ten tumored mice, each of which is ear-tagged and followed individually throughout the experiment. The administration of drugs or vehicle begins the day the animals are pair-matched (day 1). The doses, route of drug administration and schedule are selected as appropriate for the study in question. If the MTD dose of an agent is not known, it is determined in an initial dosing experiment in non-tumored mice. In a typical experiment, drugs are given at their MTD and 1/2 MTD doses i.p. on a daily×5 schedule.
# The experiment is usually terminated when control tumors reach a size of 2-3 g. Mice are weighed twice weekly, and tumor measurements are taken by calipers twice weekly, starting on day 1. These tumor measurements are converted to mg tumor weight by a well known formula, and from these calculated tumor weights the termination date can be determined. Upon termination, all mice are weighed, sacrificed, and their tumors excised. Tumors are weighed, and the mean tumor weight per group is calculated.
# Some drugs cause tumor shrinkage in the MX-1 model. With these agents, the final weight of a given tumor is subtracted from its own weight at the start of the treatment on day 1. This difference divided by the initial tumor weight is the % shrinkage. A mean % tumor shrinkage can be calculated from data from the mice in a group that experienced MX-1 regressions. If the tumor completely disappears in a mouse, this is considered a complete regression or complete tumor shrinkage. If desired, mice with partial or total tumor regressions can be kept alive past the termination date to see whether they live to become long term, tumor-free survivors.
# Note that in the following table the abbreviation SR refers to tumor shrinkage rate, while those entries followed by a superscripted `2` are tumor growth inhibition rates, not tumor shrinkage rates.
# [3] = test system: HT-29 human colon adenocarcinoma cells; test: MTT growth inhibition, HT-29; format: cell-based; conditions: 144 h, HT-29, MTT, 6 days, read-out: Growth Inhibitory Activity IC50
# Procedure: Camptothecin was used as a control to test the anti-cancer efficacy of the novel camptothecin analogs of the present invention.
# Murine B16 melanoma cell line was grown in RPMI 1640 medium supplemented with 10% heat-inactivated fetal bovine serum, 2 mM L-glutamine, 50 units/mL penicillin, 50 μg/mL streptomycin, 25 μg/mL gentamicin, 0.75% sodium bicarbonate 10 mM HEPES buffer (pH 7.4), and 0.06 mg/mL AntiPPLO. Murine P388 leukemic cell line and human HT-29 colon adenocarcinoma line were maintained in RPMI 1640 medium supplemented with 10% heat-inactivated fetal bovine serum. […] MCF-7M human breast adenocarcinoma was maintained in IMEM supplemented with 5% non heat-inactivated fetal bovine serum and 1 nM insulin.
# [See "Rapid Colorimetric Assay For Cellular Growth And Survival: Application To Proliferation And Cytotoxicity Assays," J. Immun. Meth. 65:55 (1983)]. The assay utilizes a tetrazolium salt to quantitatively measure mammalian cell survival and proliferation by colorimetric methods. In particular, MTT, a pale yellow compound with minimal absorbance, is incubated with cancerous cells in addition to (or in the absence of) a particular camptothecin analog. Living cells with active mitochondrial enzymes metabolize the MTT into a dark blue/purple formazan product with high absorbance. The exact procedure used to test the camptothecin analogs of the present invention is described below.
# Exponentially growing cells (1-2×10^3 cells, unless specified otherwise) in 0.1 mL medium were seeded on day 0 in a 96-well microtiter plate. On day 1, 0.1 mL aliquots of medium containing graded concentrations of test analogs were added to the cell plates. After incubation at 37° C. in a humidified incubator for 3 days (P388, P388/CPT, B16) or 6 days (HT-29, MCF-7M), the plates were centrifuged briefly and 100 μL of the growth medium was removed. Cell cultures were incubated with 50 μL of 3-(4,5-dimethylthiazol-2-yl)-2,5-diphenyl-tetrazolium bromide [MTT, 1 mg/mL in Dulbecco's phosphate buffered saline (PBS)] for 4 hr at 37° C. The resulting purple formazan precipitate was solubilized with 200 μL of 0.04 N HCl in isopropyl alcohol. Absorbance was monitored in a BioRad Model 3550 Microplate Reader at a test wavelength of 570 nm and a reference wavelength of 630 nm. The absorbance is transferred to a PC 486 computer. The IC50 values were determined by a computer program (EZ-ED50) that fits all of the data to the following four-parameter logistic equation:
# Y=(Amax -Amin)/(1+[X/IC^50 ])^n +Amin
# where Amax is the absorbance of control cells, Amin is the absorbance of cells in the presence of highest agent concentration, IC^50 is the concentration of agent that inhibits the cell growth by 50% of control cells (based on the absorbance) and n is the slope of the curve.
compound,measurement,setting,value
"CC[C@@]1(O)C(=O)OCc2c1cc1n(c2=O)Cc2c-1nc1ccccc1c2CO[C@@H]1C=C[C@H](OC(C)=O)[C@@H](COC(C)=O)O1 [HAR4, 7-[4,6-di-O-acetyl-2,3-dideoxy-α-D-erythro-hex-2-enopyranosyl]oxymethylcamptothecin]",solubility at 24 h,[1],155 µg/mL
same,complete disappearance of tumors (animals),[2]; 10 mg/kg,2
same,Tox Deaths,[2]; 10 mg/kg i.p. daily×5,0/10
same,ΔWeight (%),[2]; 10 mg/kg i.p. daily×5,-10.2%
same,SR(%) (Tumor Shrinkage Rate),"[2]; 10 mg/kg i.p. daily×5, 8/10 animals",77%
same,Shrinkage (animals),"[2]; 10 mg/kg i.p. daily×5, partial (77%)",8/10
same,SR(%) (Tumor Shrinkage Rate),"[2]; 10 mg/kg, 2/10 animals",100%
same,Shrinkage (animals),"[2]; 10 mg/kg, complete (100%) shrinkage",2/10
same,mice with tumor shrinkage,"[2]; 10 mg/kg, mean 77%",8
same,SR(%) (Tumor Shrinkage Rate),[2]; 20 mg/kg i.p. daily×5,99%
same,Shrinkage (animals),[2]; 20 mg/kg i.p. daily×5,1/10
same,Tox Deaths,[2]; 20 mg/kg i.p. daily×5,9/10
same,toxicity,"[2]; 20 mg/kg, in words",toxic
same,antitumor activity vs. MX-1,[2]; in words,"almost equivalent, outstanding activity"
same,IC50,[3],0.011 µg/mL
"CC[C@@]1(O)C(=O)OCc2c1cc1n(c2=O)Cc2c-1nc1ccccc1c2CO[C@@H]1C=C[C@H](O[C@H]2O[C@H](COC(C)=O)[C@@H](OC(C)=O)[C@H](OC(C)=O)[C@H]2OC(C)=O)[C@@H](COC(C)=O)O1 [HAR5, 7-[6-O-acetyl-4-O-(2,3,4,6-tetra-O-acetyl-α-D-glucopyranosyl)-2,3-dideoxy-α-D-erythro-hex-2-enopyranosyl]oxymethylcamptothecin]",solubility at 24 h,[1],35 µg/mL
same,Tox Deaths,[2]; 100 mg/kg i.p. daily×5,0/10
same,animals with tumor growth inhibition (Shrinkage column),[2]; 100 mg/kg i.p. daily×5,10/10
same,ΔWeight (%),[2]; 100 mg/kg i.p. daily×5,+7.4%
same,"Tumor growth inhibition rate (footnote 2, SR column)","[2]; 100 mg/kg i.p. daily×5, 10/10 animals",48%
same,mice with growth inhibition,[2]; 200 mg/kg,7
same,mice with tumor shrinkage,[2]; 200 mg/kg,3
same,Shrinkage (animals),[2]; 200 mg/kg i.p. daily×5,3/10
same,Tox Deaths,[2]; 200 mg/kg i.p. daily×5,0/10
same,animals with tumor growth inhibition (Shrinkage column),[2]; 200 mg/kg i.p. daily×5,7/10
same,ΔWeight (%),[2]; 200 mg/kg i.p. daily×5,+5.3%
same,SR(%) (Tumor Shrinkage Rate),"[2]; 200 mg/kg i.p. daily×5, 3/10 animals",73%
same,"Tumor growth inhibition rate (footnote 2, SR column)","[2]; 200 mg/kg i.p. daily×5, 7/10 animals",82%
same,IC50,[3],0.105 µg/mL
"CC[C@@]1(O)C(=O)OCc2c1cc1n(c2=O)Cc2c-1nc1ccccc1c2CO[C@@H]1C=C[C@H](O[C@H]2O[C@H](CO)[C@@H](O)[C@H](O)[C@H]2O)[C@@H](CO)O1 [HAR6, 7-[4-O-(α-D-glucopyranosyl)-2,3-dideoxy-α-D-erythro-hex-2-enopyranosyl]-oxymethylcamptothecin]",solubility at 24 h,[1],1620 µg/mL
same,water solubility improvement,[1],80 fold
same,mice with growth inhibition,[2]; 50 mg/kg,2
same,mice with tumor shrinkage,[2]; 50 mg/kg,8
same,SR(%) (Tumor Shrinkage Rate),[2]; 50 mg/kg i.p. daily×5,81%
same,Shrinkage (animals),[2]; 50 mg/kg i.p. daily×5,8/10
same,Tox Deaths,[2]; 50 mg/kg i.p. daily×5,0/10
same,ΔWeight (%),[2]; 50 mg/kg i.p. daily×5,+2.5%
same,tumor growth inhibition,"[2]; 50 mg/kg, remaining 2 animals",82%
same,body weight loss,[2]; 100 mg/kg,approximately 19%
same,drug-related deaths,[2]; 100 mg/kg,the tenth animal died of toxicity and one
same,mice with tumor shrinkage,[2]; 100 mg/kg,9
same,SR(%) (Tumor Shrinkage Rate),[2]; 100 mg/kg i.p. daily×5,94%
same,Shrinkage (animals),[2]; 100 mg/kg i.p. daily×5,9/10
same,Tox Deaths,[2]; 100 mg/kg i.p. daily×5,1/10
same,ΔWeight (%),[2]; 100 mg/kg i.p. daily×5,-18.6%
same,antitumor activity vs. MX-1,[2]; in words,impressive antitumor activity vs. MX-1
same,IC50,[3],0.476 µg/mL
"CC[C@@]1(O)C(=O)OCc2c1cc1n(c2=O)Cc2c-1nc1ccccc1c2CO[C@@H]1C=C[C@H](O)[C@@H](CO)O1 [HAR7, 7-[2,3-dideoxy-α-D-erythro-hex-2-enopyranosyl]-oxymethylcamptothecin]",solubility at 24 h,[1],62 µg/mL
same,water solubility improvement,[1],16 fold
same,mice with tumor shrinkage,[2]; 20 mg/kg,10
same,SR(%) (Tumor Shrinkage Rate),[2]; 20 mg/kg i.p. daily×5,98%
same,Shrinkage (animals),[2]; 20 mg/kg i.p. daily×5,10/10
same,Tox Deaths,[2]; 20 mg/kg i.p. daily×5,0/10
same,ΔWeight (%),[2]; 20 mg/kg i.p. daily×5,-0.05%
same,weight loss,"[2]; 20 mg/kg, in words",virtually no weight loss
same,SR(%) (Tumor Shrinkage Rate),[2]; 40 mg/kg i.p. daily×5,98%
same,Shrinkage (animals),[2]; 40 mg/kg i.p. daily×5,5/10
same,Tox Deaths,[2]; 40 mg/kg i.p. daily×5,4/10
same,ΔWeight (%),[2]; 40 mg/kg i.p. daily×5,-25.0%
same,toxicity,"[2]; 40 mg/kg, in words",produced lethality
same,antitumor activity vs. MX-1,[2]; in words,"almost equivalent, outstanding activity"
same,IC50,[3],0.031 µg/mL
